According to ChEMBL document CHEMBL1134842, “Mononuclear platinum(II) complex with 2-phenylpyridine ligands showing high cytotoxicity against mouse sarcoma 180 cells acquiring high cisplatin resistance” (J Med Chem, 2001):
pIC50: −log10 of the molar value.

Tests used:
[1] = Cytotoxicity against S-180cisR cells by MTT assay.; format: functional, cell-based, Mus musculus
[2] = Cytotoxicity against S-180 cells by MTT assay.; format: functional, cell-based, Mus musculus

Substance | pIC50 [1] | pIC50 [2]
cis-[PtCl2(NH3)(2-CH3C5H4N)] | 4.31 | 
cis-[PtCl2(NH3)(3-CH3C5H4N)] | 4.31 | 
cis-[PtCl2(NH3)(2-C6H5CH2C5H4N)] | 4.31 | 
cis-[PtCl(2-C6H4C5H4)(2-C6H5C5H4N)] | 5.07 | 5.51
cis-[PtCl2(NH3)(3-CH3CH2C5H4N)] | 4.31 | 
CISPLATIN | 4.23 | 5.62
